{
  "source": "ChEMBL document CHEMBL1151757",
  "about": "“Synthesis, radiosynthesis, and biological evaluation of fluorine-18-labeled 2beta-carbo(fluoroalkoxy)-3beta-(3'-((Z)-2-haloethenyl)phenyl)nortropanes: candidate radioligands for in vivo imaging of the serotonin transporter with positron emission tomography” (J Med Chem, 2008)",
  "key": {"[1]": {"test": "Ratio of drug uptake in medulla to cerebellum in anesthetized cynomolgus monkey after 185 mins postinjection", "format": "ADME, organism-based, Macaca fascicularis", "conditions": "in vivo"}, "[2]": {"test": "Drug uptake in anesthetized cynomolgus monkey brain occipital lobe after 15.5 mins postinjection", "format": "ADME, organism-based, Macaca fascicularis", "conditions": "in vivo"}, "[3]": {"test": "Drug uptake in anesthetized cynomolgus monkey brain occipital lobe after 35 mins postinjection", "format": "ADME, organism-based, Macaca fascicularis", "conditions": "in vivo"}, "[4]": {"test": "Drug uptake in anesthetized cynomolgus monkey brain occipital lobe after 175 mins postinjection", "format": "ADME, organism-based, Macaca fascicularis", "conditions": "in vivo"}, "[5]": {"test": "Drug uptake in anesthetized cynomolgus monkey brain occipital lobe after 235 mins postinjection", "format": "ADME, organism-based, Macaca fascicularis", "conditions": "in vivo"}, "[6]": {"test": "Drug uptake in anesthetized cynomolgus monkey brain frontal lobe after 1.5 mins postinjection", "format": "ADME, organism-based, Macaca fascicularis", "conditions": "in vivo, 0.025 h"}, "[7]": {"test": "Ratio of drug uptake in occipital lobe to cerebellum in anesthetized cynomolgus monkey after 115 mins postinjection", "format": "ADME, organism-based, Macaca fascicularis", "conditions": "in vivo"}, "[8]": {"test_system": "Putamen", "test": "Drug uptake in anesthetized cynomolgus monkey brain putamen after 135 mins postinjection", "format": "ADME, organism-based, Macaca fascicularis", "conditions": "in vivo, 2.25 h"}, "[9]": {"test_system": "Putamen", "test": "Drug uptake in anesthetized cynomolgus monkey brain putamen after 235 mins postinjection", "format": "ADME, organism-based, Macaca fascicularis", "conditions": "in vivo"}, "[10]": {"test_system": "Thalamus", "test": "Drug uptake in anesthetized cynomolgus monkey brain thalamus after 1.5 mins postinjection", "format": "ADME, organism-based, Macaca fascicularis", "conditions": "in vivo, 0.025 h"}, "[11]": {"test": "Ratio of drug uptake in occipital lobe to cerebellum in anesthetized cynomolgus monkey after 185 mins postinjection", "format": "ADME, organism-based, Macaca fascicularis", "conditions": "in vivo"}, "[12]": {"test": "Ratio of drug uptake in occipital lobe to cerebellum in anesthetized cynomolgus monkey after 205 mins postinjection", "format": "ADME, organism-based, Macaca fascicularis", "conditions": "in vivo"}, "[13]": {"test": "Ratio of drug uptake in frontal lobe to cerebellum in anesthetized cynomolgus monkey after 145 mins postinjection", "format": "ADME, organism-based, Macaca fascicularis", "conditions": "in vivo"}, "[14]": {"test_system": "Midbrain", "test": "Drug uptake in anesthetized cynomolgus monkey brain midbrain after 155 mins postinjection", "format": "ADME, organism-based, Macaca fascicularis", "conditions": "in vivo"}, "[15]": {"test_system": "Midbrain", "test": "Drug uptake in anesthetized cynomolgus monkey brain midbrain after 165 mins postinjection", "format": "ADME, organism-based, Macaca fascicularis", "conditions": "in vivo, 2.75 h"}, "[16]": {"test_system": "Pons", "test": "Drug uptake in anesthetized cynomolgus monkey brain pons after 3.5 mins postinjection", "format": "ADME, organism-based, Macaca fascicularis", "conditions": "in vivo"}, "[17]": {"test_system": "Thalamus", "test": "Drug uptake in anesthetized cynomolgus monkey brain thalamus after 205 mins postinjection", "format": "ADME, organism-based, Macaca fascicularis", "conditions": "in vivo"}, "[18]": {"test_system": "Medulla", "test": "Drug uptake in anesthetized cynomolgus monkey brain medulla after 185 mins postinjection", "format": "ADME, organism-based, Macaca fascicularis", "conditions": "in vivo"}, "[19]": {"test": "Ratio of drug uptake in caudate to cerebellum in anesthetized cynomolgus monkey after 12.5 mins postinjection", "format": "ADME, organism-based, Macaca fascicularis", "conditions": "in vivo"}, "[20]": {"test_system": "Pons", "test": "Drug uptake in anesthetized cynomolgus monkey brain pons after 155 mins postinjection", "format": "ADME, organism-based, Macaca fascicularis", "conditions": "in vivo"}, "[21]": {"test_system": "Medulla", "test": "Drug uptake in anesthetized cynomolgus monkey brain medulla after 1.5 mins postinjection", "format": "ADME, organism-based, Macaca fascicularis", "conditions": "in vivo, 0.025 h"}, "[22]": {"test_system": "Medulla", "test": "Drug uptake in anesthetized cynomolgus monkey brain medulla after 9.5 mins postinjection", "format": "ADME, organism-based, Macaca fascicularis", "conditions": "in vivo"}, "[23]": {"test_system": "Medulla", "test": "Drug uptake in anesthetized cynomolgus monkey brain medulla after 27.5 mins postinjection", "format": "ADME, organism-based, Macaca fascicularis", "conditions": "in vivo"}, "[24]": {"test_system": "Medulla", "test": "Drug uptake in anesthetized cynomolgus monkey brain medulla after 75 mins postinjection", "format": "ADME, organism-based, Macaca fascicularis", "conditions": "in vivo, 1.25 h"}, "[25]": {"test_system": "Medulla", "test": "Drug uptake in anesthetized cynomolgus monkey brain medulla after 125 mins postinjection", "format": "ADME, organism-based, Macaca fascicularis", "conditions": "in vivo"}, "[26]": {"test": "Drug uptake in anesthetized cynomolgus monkey brain cerebellum after 0.5 mins postinjection", "format": "ADME, organism-based, Macaca fascicularis", "conditions": "in vivo"}, "[27]": {"test": "Drug uptake in anesthetized cynomolgus monkey brain cerebellum after 1.5 mins postinjection", "format": "ADME, organism-based, Macaca fascicularis", "conditions": "in vivo, 0.025 h"}, "[28]": {"test": "Drug uptake in anesthetized cynomolgus monkey brain cerebellum after 3.5 mins postinjection", "format": "ADME, organism-based, Macaca fascicularis", "conditions": "in vivo"}, "[29]": {"test": "Drug uptake in anesthetized cynomolgus monkey brain cerebellum after 18.5 mins postinjection", "format": "ADME, organism-based, Macaca fascicularis", "conditions": "in vivo"}, "[30]": {"test": "Drug uptake in anesthetized cynomolgus monkey brain cerebellum after 155 mins postinjection", "format": "ADME, organism-based, Macaca fascicularis", "conditions": "in vivo"}, "[31]": {"test": "Ratio of drug uptake in putamen to cerebellum in anesthetized cynomolgus monkey after 215 mins postinjection", "format": "ADME, organism-based, Macaca fascicularis", "conditions": "in vivo"}, "[32]": {"test": "Ratio of drug uptake in thalamus to cerebellum in anesthetized cynomolgus monkey after 195 mins postinjection", "format": "ADME, organism-based, Macaca fascicularis", "conditions": "in vivo, 3.25 h"}, "[33]": {"test_system": "Caudate", "test": "Drug uptake in anesthetized cynomolgus monkey brain caudate after 35 mins postinjection", "format": "ADME, organism-based, Macaca fascicularis, Caudate nucleus", "conditions": "in vivo"}, "[34]": {"test_system": "Caudate", "test": "Drug uptake in anesthetized cynomolgus monkey brain caudate after 85 mins postinjection", "format": "ADME, organism-based, Macaca fascicularis, Caudate nucleus", "conditions": "in vivo"}, "[35]": {"test_system": "Caudate", "test": "Drug uptake in anesthetized cynomolgus monkey brain caudate after 115 mins postinjection", "format": "ADME, organism-based, Macaca fascicularis, Caudate nucleus", "conditions": "in vivo"}, "[36]": {"test_system": "Caudate", "test": "Drug uptake in anesthetized cynomolgus monkey brain caudate after 145 mins postinjection", "format": "ADME, organism-based, Macaca fascicularis, Caudate nucleus", "conditions": "in vivo"}, "[37]": {"test_system": "Caudate", "test": "Drug uptake in anesthetized cynomolgus monkey brain caudate after 215 mins postinjection", "format": "ADME, organism-based, Macaca fascicularis, Caudate nucleus", "conditions": "in vivo"}, "[38]": {"test_system": "Putamen", "test": "Drug uptake in anesthetized cynomolgus monkey brain putamen after 0.5 mins postinjection", "format": "ADME, organism-based, Macaca fascicularis", "conditions": "in vivo"}, "[39]": {"test_system": "Putamen", "test": "Drug uptake in anesthetized cynomolgus monkey brain putamen after 12.5 mins postinjection", "format": "ADME, organism-based, Macaca fascicularis", "set-up": "unit not given here", "conditions": "in vivo"}, "[40]": {"test_system": "Putamen", "test": "Drug uptake in anesthetized cynomolgus monkey brain putamen after 55 mins postinjection", "format": "ADME, organism-based, Macaca fascicularis", "set-up": "unit not given here", "conditions": "in vivo"}, "[41]": {"test_system": "Thalamus", "test": "Drug uptake in anesthetized cynomolgus monkey brain thalamus after 95 mins postinjection", "format": "ADME, organism-based, Macaca fascicularis", "set-up": "unit not given here", "conditions": "in vivo"}, "[42]": {"test_system": "Thalamus", "test": "Drug uptake in anesthetized cynomolgus monkey brain thalamus after 125 mins postinjection", "format": "ADME, organism-based, Macaca fascicularis", "set-up": "unit not given here", "conditions": "in vivo"}, "[43]": {"test_system": "Thalamus", "test": "Drug uptake in anesthetized cynomolgus monkey brain thalamus after 175 mins postinjection", "format": "ADME, organism-based, Macaca fascicularis", "set-up": "unit not given here", "conditions": "in vivo"}, "[44]": {"test_system": "Thalamus", "test": "Drug uptake in anesthetized cynomolgus monkey brain thalamus after 215 mins postinjection", "format": "ADME, organism-based, Macaca fascicularis", "set-up": "unit not given here", "conditions": "in vivo"}, "[45]": {"test_system": "Thalamus", "test": "Drug uptake in anesthetized cynomolgus monkey brain thalamus after 235 mins postinjection", "format": "ADME, organism-based, Macaca fascicularis", "set-up": "unit not given here", "conditions": "in vivo"}, "[46]": {"test_system": "Midbrain", "test": "Drug uptake in anesthetized cynomolgus monkey brain midbrain after 3.5 mins postinjection", "format": "ADME, organism-based, Macaca fascicularis", "set-up": "unit not given here", "conditions": "in vivo"}, "[47]": {"test": "Ratio of drug uptake in midbrain to cerebellum in anesthetized cynomolgus monkey after 145 mins postinjection", "format": "ADME, organism-based, Macaca fascicularis", "conditions": "in vivo"}},
  "data": [
    {"smiles": "O=C(OCCC[18F])C1C2CCC(CC1c1cccc(/C=C\\I)c1)N2", "note": "(configuration not stated)", "values": [
      {"measurement": "Ratio", "setting": "[1]", "value": 1.8},
      {"measurement": "Drug uptake", "setting": "[2]", "value": 3.53},
      {"measurement": "Drug uptake", "setting": "[3]", "value": 4.01},
      {"measurement": "Drug uptake", "setting": "[4]", "value": 2.55},
      {"measurement": "Drug uptake", "setting": "[5]", "value": 1.99},
      {"measurement": "Drug uptake", "setting": "[6]", "value": 0.16},
      {"measurement": "Ratio", "setting": "[7]", "value": 1},
      {"measurement": "Drug uptake", "setting": "[8]", "value": 4.16},
      {"measurement": "Drug uptake", "setting": "[9]", "value": 3.02},
      {"measurement": "Drug uptake", "setting": "[10]", "value": 0.24},
      {"measurement": "Ratio", "setting": "[11]", "value": 1.1},
      {"measurement": "Ratio", "setting": "[12]", "value": 1.2},
      {"measurement": "Ratio", "setting": "[13]", "value": 1},
      {"measurement": "Drug uptake", "setting": "[14]", "value": 4.35},
      {"measurement": "Drug uptake", "setting": "[15]", "value": 4.26},
      {"measurement": "Drug uptake", "setting": "[16]", "value": 1.71},
      {"measurement": "Drug uptake", "setting": "[17]", "value": 3.14},
      {"measurement": "Drug uptake", "setting": "[18]", "value": 3.93},
      {"measurement": "Ratio", "setting": "[19]", "value": 0.7},
      {"measurement": "Drug uptake", "setting": "[20]", "value": 3.52},
      {"measurement": "Drug uptake", "setting": "[21]", "value": 0.35},
      {"measurement": "Drug uptake", "setting": "[22]", "value": 3.97},
      {"measurement": "Drug uptake", "setting": "[23]", "value": 5.08},
      {"measurement": "Drug uptake", "setting": "[24]", "value": 5.16},
      {"measurement": "Drug uptake", "setting": "[25]", "value": 4.54},
      {"measurement": "Drug uptake", "setting": "[26]", "value": 0.01},
      {"measurement": "Drug uptake", "setting": "[27]", "value": 0.27},
      {"measurement": "Drug uptake", "setting": "[28]", "value": 1.95},
      {"measurement": "Drug uptake", "setting": "[29]", "value": 4.74},
      {"measurement": "Drug uptake", "setting": "[30]", "value": 2.32},
      {"measurement": "Ratio", "setting": "[31]", "value": 1.5},
      {"measurement": "Ratio", "setting": "[32]", "value": 1.5},
      {"measurement": "Drug uptake", "setting": "[33]", "value": 3.9},
      {"measurement": "Drug uptake", "setting": "[34]", "value": 3.94},
      {"measurement": "Drug uptake", "setting": "[35]", "value": 3.61},
      {"measurement": "Drug uptake", "setting": "[36]", "value": 3.24},
      {"measurement": "Drug uptake", "setting": "[37]", "value": 2.54},
      {"measurement": "Drug uptake", "setting": "[38]", "value": 0.01},
      {"measurement": "Drug uptake", "setting": "[39]", "value": 4.08},
      {"measurement": "Drug uptake", "setting": "[40]", "value": 5.03},
      {"measurement": "Drug uptake", "setting": "[41]", "value": 4.52},
      {"measurement": "Drug uptake", "setting": "[42]", "value": 4.15},
      {"measurement": "Drug uptake", "setting": "[43]", "value": 3.44},
      {"measurement": "Drug uptake", "setting": "[44]", "value": 3.02},
      {"measurement": "Drug uptake", "setting": "[45]", "value": 2.78},
      {"measurement": "Drug uptake", "setting": "[46]", "value": 1.74},
      {"measurement": "Ratio", "setting": "[47]", "value": 1.8}
    ]}
  ]
}
